Here are results for five compounds from US20100204134A1, “USE OF THE PEPTIDE HIS-SER-LEU-GLY-LYS-TRP-LEU-GLY-HIS-PRO-ASP-LYS-PHE ALONE OR IN COMBINATION WITH THE PEPTIDE GLY-ARD-GLY-ASP-ASN-PRO-OH AS A THERAPEUTIC AGENT” (priority 2007, published 2010).

For one experiment, the system named is HIV-1IIIB. Briefly: HIV-1 antiviral assay in CEM-SS cells. Type of experiment: cell-based.
A further experiment concerns HCMV strain AD169. The experiment in a line: HCMV plaque formation assay. The note with it: MRC-5 cells; for inhibition of HCMV plaque formation as compared to the virus control: 10 micrograms per ml, 7-10 days.
The next experiment deals with HUVEC. The experiment in a line: Endothelial tube formation assay. To be noted: 10 micrograms per ml; 20 hours.
In the next experiment the test system is murine spleen cells. Briefly: Th1/Th2 cytokine profiling assay. To be noted: 10 micrograms per ml; Ovalbumin restimulation; 72 hours.
Experiment [1] has as its system Primary Human endothelial cells (HUVEC). Briefly: Endothelial cell migration assay. The note with it: 10 micrograms per ml; 22 hours. Type of experiment: cell-based.
Method: Primary Human endothelial cells (HUVEC) were seeded in insert chambers with 3 micrometer pore size of multi-transwell plate for 6 hours at 37° C. in Endothelial Cell Basal Medium (EBM) supplemented with 0.1% bovine serum albumin. Thereafter, designated concentration of test peptides—10 micrograms per ml—was added in duplicate wells. The endothelia were allowed to migrate for 22 hours at 37° C., then, migrated cells were fixed and stained with Hoechst 33342 dye. Images of 3 fields per insert were taken and the number of migrated cells per field were quantified using the ImageProPlus software. Data were analyzed for the average number of the migrated cells and standard deviation of six data points for each treatment condition. […] Statistic p values were computed using the Student's t-test.
Another experiment has as its system Streptococcus pneumoniae. Briefly: Streptococcus pneumoniae assay. To be noted: 10 micrograms per ml; 5×10^5 CFU/mL.
Experiment [2] deals with hepatitis B virus (HBV) ayw strain. Briefly: HBV experimental assay system (secreted HBV DNA, TaqMan PCR). To be noted: 10 micrograms per ml; HepG2-2.2.15; six days; HBV DNA in supernatant. Type of experiment: cell-based. Background: Real-time PCR tracks product formation cycle by cycle.

No end group written: not given here.

From the text for murine spleen cells: The Balb/c mice (originated in 1923, it is a popular strain and is used in many different research disciplines. Also classified as an inbred from the production of 20 or more successive brother-sister matings, the Balb/c mouse is albino and small in size) were immunized on Days 1, 15, and 29 with Ovalbumin (Ovalbumin is the main protein found in egg white, commonly used to stimulate an immunological reaction in test animals) in PBS (5 micrograms/injection). On day 50, spleens of the mice were harvested (3 weeks after last boost with Ovalbumin). […] Thereafter, additional Ovalbumin was added to the cells at 10 micrograms/ml for in vitro restimulation of the cells. 72 hours later, cell supernatants were harvested and assayed using the Becton Dickinson Mouse Th1/Th2 Cytokine CBA Kit. This kit can be used to measure Interleukin-2 (IL-2), Interleukin-4 (IL-4), Interleukin-5 (IL-5), Interferon-γ (IFN-γ), and Tumor Necrosis Factor-α (TNF-α) protein levels in a single sample.

On to `CC(C)(C)NC(=O)[C@@H]1CN(Cc2cccnc2)CCN1C[C@@H](O)C[C@@H](Cc1ccccc1)C(=O)N[C@H]1c2ccccc2C[C@H]1O` [indinavir], for which, in the experiment with HIV-1IIIB, the “antiviral activity of positive control compounds” value is “expected levels of antiviral activity”.
On the same count and under the same terms, the entry for `Cc1cn([C@H]2C[C@H](N=[N+]=[N-])[C@@H](CO)O2)c(=O)[nH]c1=O` [AZT] is “expected levels of antiviral activity”.
For “His-Ser-Leu-Gly-Lys-Trp-Leu-Gly-His-Pro-Asp-Lys-Phe (HSLGKWLGHPDKF; printed: His-Ser-Leu-Gly-Lys-Trp-Leu-Gly-His-Pro-Asp-Lys-Phe) [Peptide 1]”, in the experiment with HCMV strain AD169, the “inhibition of HCMV plaque formation as compared to the virus control” value is recorded as “did not inhibit”. Also, the “inhibition of the tube formation of human endothelial cells” value in the experiment with HUVEC is 10%. Besides, in the experiment on murine spleen cells, the “change of the production of IFN-γ” value is listed as “did not significantly change”, the “change of the production of IL-5” value is reported as “did not significantly change”, the “induction of the production of IL-2” value stood at 106.5% and the “induction of the production of IL-4” value amounted to 117.8%. Besides, the “induction of the production of TNF-alpha” value with murine spleen cells was determined as 21.2%. For the same compound, the “inhibition of the migration of human endothelial cells” value in experiment [1] was 12%. Moreover, the “inhibition of the growth of Streptococcus pneumoniae” value in the experiment on Streptococcus pneumoniae was 100%.
For “Gly-Arg-Gly-Asp-Asn-Pro-OH (GRGDNP-OH) [Peptide 2]”, the “inhibition of HBV replication as compared to the virus control infection” value in experiment [2] stood at 36.4%. The “inhibition of HCMV plaque formation as compared to the virus control” value in the experiment with HCMV strain AD169 was “did not inhibit”. For the same compound, the “increase of the tube formation of endothelial cells” value in the experiment on HUVEC is given as 6%. Also, in the experiment on murine spleen cells, the “change of the production of IFN-γ” value is on record as “did not significantly change”, the “change of the production of IL-5” value is “did not significantly change”, the “induction of the production of IL-2” value is given as 58.8% and the “induction of the production of IL-4” value is given as 55.6%. Besides, the “induction of the production of TNF-alpha” value in the experiment with murine spleen cells was 23.7%. For the same compound, the “inhibition of the growth of Streptococcus pneumoniae” value in the experiment with Streptococcus pneumoniae is 100%.
As for `Nc1nc(O)c2ncn(COC(CO)CO)c2n1` [Ganciclovir, reference compound], the “antiviral activity of positive control compound” value in the experiment on HCMV strain AD169 (positive control, HCMV) is on record as “expected levels of antiviral activity”.
